Measurements as given in patent US20250302904A1, “EXTRACTS IN EUTECTIC SOLVENT OF OLIVE OIL POLYPHENOLS, COMPOSITIONS, USES AND METHODS OF PREPARATION THEREOF” (ACTIVE-ITALIA S.R.L., priority 2022, published 2025).

Experiments:
[1] = Stability test of oleocanthal and oleacein in NaDES or water, 30 days; type: physicochemical; details: after 30 days, 10 mM
Method: Oleocanthal and oleacein were dissolved at a final concentration equal to 10 mM in water or in NaDES (Betaine/Propylene glycol, Bet/Prop) and subjected to stability test.

[2] = Additional stability tests of oleocanthal and oleacein in water or formulated product (NaDES), 6 months; type: physicochemical; details: for degradation with respect to control at time zero: formulated product (NaDES betaine/propylene glycol 1:3.3); for degradation: in water
Method: FIG. 4. Stability over time (6 months) of oleacein and oleocanthal at 25° C. and 40° C. in water and in the formulated product (serum NaDES diluted in almond oil). The values represent standard averages and deviations (N=3). The significance tests were performed with one-way ANOVA (p<=0.05).
Additional stability tests of oleocanthal and oleacein in water or in NaDES (that is in NaDES mixture comprising betaine/propylene glycol 1:3.3) were performed for 6 months, at different temperatures. The results obtained from the stability tests over time (6 months) of oleacein and oleocanthal, at two different temperatures (25° C. and 40° C. (accelerated stability)), in water and in the formulated product, are shown in FIG. 4. […] In particular, in water, after six months at 25° C., there is a degradation of oleacein and oleocanthal by about 70% and l′80%, respectively. At 40° C. the degradation results to be still more evident: about 90% for oleacein and 80% for oleocanthal. On the contrary, in the product formulated according to the present invention (NaDES betaine/propylene glycol 1:3.3), the degradation of the active principles, with respect to control at time zero, results to be modest at 25° C. and by about 50% and 30% for oleacein and oleocanthal respectively at 40° C.

[3] = NaDES betaine/propylene glycol (1:3.3), 25° C.
[4] = NaDES betaine/propylene glycol (1:3.3), 40° C.

| % loss ([1]; H2O, 25° C.) [%] | % loss ([1]; H2O, 40° C.) [%] | % loss [1, 3] [%] | % loss [1, 4] [%] | degradation with respect to control at time zero ([2]; six months at 25° C.) | degradation with respect to control at time zero ([2]; six months at 40° C.) | degradation ([2]; after six months at 25° C.) | degradation ([2]; six months at 40° C.) | Structure (SMILES) |
| --- | --- | --- | --- | --- | --- | --- | --- | --- |
| 7.5 | 32.6 | ~0 | 1.4 | modest | ~30% | ~80% | ~80% | C/C=C(/C=O)[C@@H](CC=O)CC(=O)OCCc1ccc(O)cc1 [Oleocanthal] |
| 8.1 | 38.1 | ~0 | 4.5 | modest | about 50% | about 70% | about 90% | CC=C(C=O)C(CC=O)CC(=O)OCCc1ccc(O)c(O)c1 (stereo in doubt) [Oleacein] |
